Assays:
steroid 5-α-reductase = assay: kinetic mechanism of inhibition versus testosterone (competitive / uncompetitive); assay type: biochemical; details: competitive = binds E-NADPH; uncompetitive = binds E-NADP+
Excerpt: Dead-end inhibitors of bisubstrate enzymes which follow ordered kinetic mechanisms can associate to one or more existing enzyme species. With steroid 5-α-reductase, enzyme forms to which such a steroidal-inhibitor might bind would include free enzyme, E, and enzyme binary complexes with cofactor, E-NADPH and E-NADP^+.
The response of the velocity of enzyme catalysis with varying concentrations of testosterone in the presence of an inhibitor that binds to the E-NADPH complex can be described by equation 1; this model is denoted as competitive inhibition versus the variable substrate, in this case testosterone.
v=VM A/[Ka (1+I/Kis)+A] (1)
v=VM A/[Ka +A(1+K/Kii)] (2)
The results of these analyses are typically expressed in double reciprocal plots: 1/velocity versus 1/[testosterone].

[1] = tested on: involuted ventral prostate; assay: testosterone induced regrowth of the involuted ventral prostate of castrated male rats; assay type: in vivo, rat; details: castrated + testosterone implant, 10 days, N = 5 rats/group
Procedure: Certain combinations of the invention were tested for their in vivo potency in inhibiting steroid 5-α-reductase activity.
(§1) When male rats are castrated and allowed to go untreated for 1 month, the ventral prostates involutes to approximately 10% of its original total cell number. If exogeneous testosterone is given to these castrated rats to restore the physiological serum level of testosterone, the involuted ventral prostate rapidly proliferates restoring its original cell content within 2-3 weeks. Using the ability to inhibit this testosterone induced regrowth of the rat ventral prostate, the efficacy and potency of twice daily oral administering of the "competitive" inhibitor and the "uncompetitive" inhibitor individually and in combination were compared.
(§2) To perform these experiments, a total of 50 male Sprague Dawley rats (From Harlan Sprague-Dawley, Inc.) of 250-300 gm starting weight were used. Forty-five of these animals were castrated and allowed to go untreated for 1 month to produce maximal ventral prostatic and seminal vesicle involution. After this 1 month period, 40 of the 45 castrated animals were implanted subcutaneously in the flank with a 2.5 cm long testosterone filled silastic capsule. The 50 animals were set up in 10 groups as follows:
(§3) The animals were administered the 5-α-reductase inhibiting compounds twice a day (BID) for 10 consecutive days. This test compound was dissolved in propylene glycol and diluted in normal saline. At the end of the treatment period blood was collected from the animals and then they were sacrificed, the ventral prostrates were excised and weighed, and DHT levels were measured by the following procedure.
Prostate tissue was excised, trimmed, weighed, minced and washed with phosphate buffer. The tissue then was homogenized in phosphate buffer and extracted by addition of ethyl acetate and mixing on an orbital mixer for forty-five minutes. The ethyl acetate was evaporated, the residue was reconstituted in ethanol, and was centrifuge filtered using […] filter paper. The components then were separated using reverse-phase HPLC collecting the DHT fraction. The fraction was reduced to dryness and reconstituted in standard commercial DHT assay buffer. DHT levels then were measured using standard techniques such as radioimmunoassay.

seminal vesicle = assay: testosterone induced regrowth of the involuted seminal vesicle of castrated male rats; assay type: in vivo, rat; details: castrated + testosterone implant, 10 days, N = 5 rats/group
Excerpt: as §1, §2, §3

[2] = tested on: involuted ventral prostate; details: Stoner, et al. (1987) Endocrinology 120:774; cited from earlier work

SMILES	mechanism of inhibition versus testosterone (steroid 5-α-reductase)	Ventral Prostate DNA (μg/gland) ([1]; BID 12.5 mg/kg oral)	Ventral Prostate weight (mg/gland) ([1]; BID 12.5 mg/kg oral)	Ventral Prostate DNA (μg/gland) ([1]; BID 25 mg/kg oral)	Ventral Prostate weight (mg/gland) ([1]; BID 25 mg/kg oral)	Ventral Prostate DNA (μg/gland) ([1]; BID 50 mg/kg oral)	Ventral Prostate weight (mg/gland) ([1]; BID 50 mg/kg oral)	Seminal Vesicle DNA (μg/gland) (seminal vesicle; BID 12.5 mg/kg oral)	Seminal Vesicle weight (mg/gland) (seminal vesicle; BID 12.5 mg/kg oral)	Seminal Vesicle DNA (μg/gland) (seminal vesicle; BID 25 mg/kg oral)	Seminal Vesicle weight (mg/gland) (seminal vesicle; BID 25 mg/kg oral)	Seminal Vesicle DNA (μg/gland) (seminal vesicle; BID 50 mg/kg oral)	Seminal Vesicle weight (mg/gland) (seminal vesicle; BID 50 mg/kg oral)	plateau dose-response effect on prostate weight reported in other studies [2]
CC(C)(C)NC(=O)[C@H]1CC[C@H]2[C@@H]3CC[C@H]4NC(=O)C=C[C@]4(C)[C@H]3CC[C@]12C [compound A, N-t-butyl-5-α-androst-1-ene-4-aza-17β-carboxamide-3-one]	competitive inhibitor	289 ± 17	71 ± 11	290 ± 25	55 ± 7	284 ± 19	62 ± 7	692 ± 51	118 ± 5	708 ± 72	108 ± 10	698 ± 39	108 ± 7	plateau dose-response effect
CC(C)N(C(=O)[C@H]1CC[C@H]2[C@@H]3CC=C4C=C(C(=O)O)CC[C@]4(C)[C@H]3CC[C@]12C)C(C)C [compound B, N,N-diisopropyl-androst-3,5-diene-17β-carboxamide-3-carboxylic acid]	uncompetitive inhibitor	–	–	–	–	–	–	–	–	–	–	–	–	–
CC(C)(C)NC(=O)[C@H]1CC[C@H]2[C@@H]3CC=C4C=C(C(=O)O)CC[C@]4(C)[C@H]3CC[C@]12C [compound C, N-t-butyl-androst-3,5-diene-17β-carboxamide-3-carboxylic acid]	uncompetitive inhibitor	359 ± 36	154 ± 22	383 ± 29	143 ± 17	316 ± 52	147 ± 15	851 ± 47	158 ± 15	890 ± 58	170 ± 19	855 ± 63	159 ± 20	–

Source: patent publication US5516768A, “Uncompetitive inhibition of steroid and 5α-reductose” (priority 1990, dated 1996)
